For 34 molecules, IC50 results are on record in patent publication US20230150970A1, “AMINOPYRIMIDINE DERIVATIVES AND THEIR USE AS ARYL HYDROCARBON RECEPTOR MODULATORS” (DONG-A ST CO., LTD., priority 2020, published 2023).

The target in this test is T1, AhR (Homo sapiens, UniProt P35869).
T1 sequence (P35869 11-848): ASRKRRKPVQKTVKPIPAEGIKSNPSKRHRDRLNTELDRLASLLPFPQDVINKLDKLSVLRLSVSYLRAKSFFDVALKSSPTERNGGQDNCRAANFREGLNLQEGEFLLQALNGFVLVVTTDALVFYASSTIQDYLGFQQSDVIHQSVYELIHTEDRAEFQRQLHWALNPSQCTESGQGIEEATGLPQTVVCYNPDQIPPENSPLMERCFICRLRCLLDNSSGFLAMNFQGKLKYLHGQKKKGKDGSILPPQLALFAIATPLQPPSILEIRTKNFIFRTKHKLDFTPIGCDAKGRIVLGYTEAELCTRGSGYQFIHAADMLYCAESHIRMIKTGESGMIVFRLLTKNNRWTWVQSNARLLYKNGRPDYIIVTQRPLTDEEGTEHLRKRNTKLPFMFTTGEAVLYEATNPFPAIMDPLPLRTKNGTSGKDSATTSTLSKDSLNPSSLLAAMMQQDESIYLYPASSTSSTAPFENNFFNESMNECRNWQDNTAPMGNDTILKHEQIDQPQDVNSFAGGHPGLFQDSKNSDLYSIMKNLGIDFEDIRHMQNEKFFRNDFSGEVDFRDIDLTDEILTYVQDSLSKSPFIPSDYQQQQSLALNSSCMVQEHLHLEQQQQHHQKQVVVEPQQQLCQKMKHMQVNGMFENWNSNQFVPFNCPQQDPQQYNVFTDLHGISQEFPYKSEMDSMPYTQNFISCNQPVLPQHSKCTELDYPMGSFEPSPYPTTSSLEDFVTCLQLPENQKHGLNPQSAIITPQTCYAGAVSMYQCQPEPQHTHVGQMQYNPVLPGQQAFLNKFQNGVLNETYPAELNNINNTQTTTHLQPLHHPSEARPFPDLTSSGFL
As to the kind of experiment: In Vitro Assay 1: XRE-luciferase reporter assay, antagonism in human cell line (HepG2). Particulars: Assay 1: AhR-Luc Human Antagonism (IC50, nM), values marked *: kynurenine 50 μM, 6 hours. On the technique in general: Reporter assays use an easily measured gene product as a stand-in for the process of interest.
Usually IC50 stands for the midpoint of a concentration-inhibition curve. The low end stands for greater potency in that assay, the high end for weaker potency in that assay. `Cc1ccc(N2CCN(c3cc(-c4ccc(Cl)cc4)nc(-c4cccnc4)n3)CC2)cc1` [Example 115, 4-(4-chlorophenyl)-2-(pyridin-3-yl)-6-(4-(p-tolyl)piperazin-1-yl)pyrimidine] registered an IC50 greater than 1000 nM.
With `Cc1cccc(N2CCN(c3cc(-c4ccc(Cl)cc4)nc(-c4cccnc4)n3)CC2)c1` [Example 116, 4-(4-chlorophenyl)-2-(pyridin-3-yl)-6-(4-(m-tolyl)piperazin-1-yl)pyrimidine], the IC50 was greater than 1000 nM.
In turn, `FC(F)(F)c1cccc(N2CCN(c3cc(-c4ccc(Cl)cc4)nc(-c4cccnc4)n3)CC2)c1` [Example 117, 4-(4-chlorophenyl)-2-(pyridin-3-yl)-6-(4-(3-(trifluoromethyl)phenyl)piperazin-1-yl)pyrimidine] showed an IC50 of 100 to 1000 nM.
In the case of `Clc1ccc(-c2cc(N3CCN(c4ccc(Cl)c(Cl)c4)CC3)nc(-c3cccnc3)n2)cc1` [Example 119, 4-(4-chlorophenyl)-6-(4-(3,4-dichlorophenyl)piperazin-1-yl)-2-(pyridin-3-yl)pyrimidine] it was greater than 1000 nM.
For the molecule `COc1ccc(N2CCN(c3cc(-c4ccc(Cl)cc4)nc(-c4cccnc4)n3)CC2)cc1` [Example 120, 4-(4-chlorophenyl)-6-(4-(4-methoxyphenyl)piperazin-1-yl)-2-(pyridin-3-yl)pyrimidine], the IC50 was less than 10 nM.
The molecule `O=[N+]([O-])c1ccc(N2CCN(c3cc(-c4ccc(Cl)cc4)nc(-c4cccnc4)n3)CC2)cc1` [Example 121, 4-(4-chlorophenyl)-6-(4-(4-nitrophenyl)piperazin-1-yl)-2-(pyridin-3-yl)pyrimidine] gave an IC50 greater than 1000 nM.
In the case of `CN1CCN(C2CCN(c3cc(-c4ccc(Cl)cc4)nc(-c4cccnc4)n3)C2)CC1` (stereo not shown) [Example 122, 4-(4-chlorophenyl)-6-(3-(4-methylpiperazin-1-yl)pyrrolidin-1-yl)-2-(pyridin-3-yl)pyrimidine], the IC50 was in the range of 10 to 100 nM.
Turning to `Clc1ccc(-c2cc(N3CCN(C(c4ccccc4)c4ccccc4)CC3)nc(-c3cccnc3)n2)cc1` [Example 123, 4-(4-benzhydrylpiperazin-1-yl)-6-(4-chlorophenyl)-2-(pyridin-3-yl)pyrimidine], the IC50 is greater than 1000 nM.
Turning to `Clc1ccc(-c2cc(N3CCN(C(c4ccccc4)c4ccc(Cl)cc4)CC3)nc(-c3cccnc3)n2)cc1` (stereo not shown) [Example 124, 4-(4-chlorophenyl)-6-(4-((4-chlorophenyl)(phenyl)methyl)piperazin-1-yl)-2-(pyridin-3-yl)pyrimidine], the IC50 is greater than 1000 nM.
For `Clc1ccc(-c2cc(N3CCC4(C=Cc5ccccc54)CC3)nc(-c3cccnc3)n2)cc1` [Example 125, 1′-(6-(4-chlorophenyl)-2-(pyridin-3-yl)pyrimidin-4-yl)spiro[indene-1,4′-piperidine]], the IC50 was 100 to 1000 nM.
`Clc1ccc(-c2cc(NC3CCNC3)nc(-c3cccnc3)n2)cc1` (stereo not shown) [Example 126, 6-(4-chlorophenyl)-2-(pyridin-3-yl)-N-(pyrrolidin-3-yl)pyrimidin-4-amine] came in with an IC50 greater than 1000 nM.
The same measure for `Clc1ccc(-c2cc(N[C@@H]3CCNC3)nc(-c3cccnc3)n2)cc1` [Example 127, (R)-6-(4-chlorophenyl)-2-(pyridin-3-yl)-N-(pyrrolidin-3-yl)pyrimidin-4-amine]: greater than 1000 nM; for `Clc1ccc(-c2cc(NC[C@@H]3CCNC3)nc(-c3cccnc3)n2)cc1` [Example 128, (R)-6-(4-chlorophenyl)-2-(pyridin-3-yl)-N-(pyrrolidin-3-ylmethyl)pyrimidin-4-amine]: greater than 1000 nM.
In the case of `Clc1ccc(-c2cc(NCCN3CCCC3)nc(-c3cccnc3)n2)cc1` [Example 129, 6-(4-chlorophenyl)-2-(pyridin-3-yl)-N-(2-(pyrrolidin-1-yl)ethyl)pyrimidin-4-amine], the IC50 was greater than 1000 nM.
The molecule `Clc1ccc(-c2cc(NCCCN3CCCC3)nc(-c3cccnc3)n2)cc1` [Example 130, 6-(4-chlorophenyl)-2-(pyridin-3-yl)-N-(3-(pyrrolidin-1-yl)propyl)pyrimidin-4-amine] registered an IC50 greater than 1000 nM.
In turn, `CN1CCCC1CCNc1cc(-c2ccc(Cl)cc2)nc(-c2cccnc2)n1` (stereo not shown) [Example 131, 6-(4-chlorophenyl)-N-(2-(1-methylpyrrolidin-2-yl)ethyl)-2-(pyridin-3-yl)pyrimidin-4-amine] displayed an IC50 greater than 1000 nM.
The same measure for `Clc1ccc(-c2cc(NC3CCN(Cc4ccccc4)C3)nc(-c3cccnc3)n2)cc1` (stereo not shown) [Example 132, N-(1-benzylpyrrolidin-3-yl)-6-(4-chlorophenyl)-2-(pyridin-3-yl)pyrimidin-4-amine]: 100 to 1000 nM.
The molecule `O[C@@H]1CNC[C@@H]1Nc1cc(-c2ccc(Cl)cc2)nc(-c2cccnc2)n1` [Example 133, (3R,4S)-4-((6-(4-chlorophenyl)-2-(pyridin-3-yl)pyrimidin-4-yl)amino)pyrrolidin-3-ol] returned an IC50 greater than 1000 nM.
For the molecule `O[C@H]1CNC[C@H]1Nc1cc(-c2ccc(Cl)cc2)nc(-c2cccnc2)n1` [Example 134, (3S,4R)-4-((6-(4-chlorophenyl)-2-(pyridin-3-yl)pyrimidin-4-yl)amino)pyrrolidin-3-ol], the IC50 is greater than 1000 nM.
Take `Clc1ccc(-c2cc(N3CCCC3)nc(-c3cccnc3)n2)cc1` [Example 135, 4-(4-chlorophenyl)-2-(pyridin-3-yl)-6-(pyrrolidin-1-yl)pyrimidine]: the IC50 is 10 to 100 nM.
Regarding `CC1CCCN1c1cc(-c2ccc(Cl)cc2)nc(-c2cccnc2)n1` (stereo not shown) [Example 136, 4-(4-chlorophenyl)-6-(2-methylpyrrolidin-1-yl)-2-(pyridin-3-yl)pyrimidine], the IC50 is 100 to 1000 nM.
The same measure for `OCC1CCN(c2cc(-c3ccc(Cl)cc3)nc(-c3cccnc3)n2)C1` (stereo not shown) [Example 138, (1-(6-(4-chlorophenyl)-2-(pyridin-3-yl)pyrimidin-4-yl)pyrrolidin-3-yl)methanol]: less than 10 nM; for `F[C@@H]1CCN(c2cc(-c3ccc(Cl)cc3)nc(-c3cccnc3)n2)C1` [Example 139, (R)-4-(4-chlorophenyl)-6-(3-fluoropyrrolidin-1-yl)-2-(pyridin-3-yl)pyrimidine]: 10 to 100 nM.
Molecule `NC1CCN(c2cc(-c3ccc(Cl)cc3)nc(-c3cccnc3)n2)C1` (stereo not shown) [Example 140, 1-(6-(4-chlorophenyl)-2-(pyridin-3-yl)pyrimidin-4-yl)pyrrolidin-3-amine] yielded an IC50 greater than 1000 nM.
The same measure for `CNC1CCN(c2cc(-c3ccc(Cl)cc3)nc(-c3cccnc3)n2)C1` (stereo not shown) [Example 141, 1-(6-(4-chlorophenyl)-2-(pyridin-3-yl)pyrimidin-4-yl)-N-methylpyrrolidin-3-amine]: greater than 1000 nM; for `COC(=O)[C@@H]1CCCN1c1cc(-c2ccc(Cl)cc2)nc(-c2cccnc2)n1` [Example 142, methyl (6-(4-chlorophenyl)-2-(pyridin-3-yl)pyrimidin-4-yl)prolinate]: 100 to 1000 nM.
Consider `CC(O)C(C)Nc1cc(-c2ccc(Cl)cc2)nc(-c2cccnc2)n1` (stereo not shown) [Example 145, 3-((6-(4-chlorophenyl)-2-(pyridin-3-yl)pyrimidin-4-yl)amino)butan-2-ol], for which the IC50 fell in the range of 100 to 1000 nM.
Regarding `OC[C@@H]1CCCN(c2cc(-c3ccc(Cl)cc3)nc(-c3cccnc3)n2)C1` [Example 147, (R)-(1-(6-(4-chlorophenyl)-2-(pyridin-3-yl)pyrimidin-4-yl)piperidin-3-yl)methanol], the IC50 is less than 10 nM.
On to `OC[C@H]1CCCN(c2cc(-c3ccc(Cl)cc3)nc(-c3cccnc3)n2)C1` [Example 148, (S)-(1-(6-(4-chlorophenyl)-2-(pyridin-3-yl)pyrimidin-4-yl)piperidin-3-yl)methanol], for which the IC50 lay within 10 to 100 nM.
`Clc1ccc(-c2cc(NCCN3CCCCC3)nc(-c3cccnc3)n2)cc1` [Example 149, 6-(4-chlorophenyl)-N-(2-(piperidin-1-yl)ethyl)-2-(pyridin-3-yl)pyrimidin-4-amine]: the IC50 was greater than 1000 nM.
Molecule `N#CC1CCN(c2cc(-c3ccc(Cl)cc3)nc(-c3cccnc3)n2)CC1` [Example 150, 1-(6-(4-chlorophenyl)-2-(pyridin-3-yl)pyrimidin-4-yl)piperidine-4-carbonitrile] came in with an IC50 of less than 10 nM.
Molecule `OC1(c2cccc(C(F)(F)F)c2)CCN(c2cc(-c3ccc(Cl)cc3)nc(-c3cccnc3)n2)CC1` [Example 151, 1-(6-(4-chlorophenyl)-2-(pyridin-3-yl)pyrimidin-4-yl)-4-(3-(trifluoromethyl)phenyl)piperidin-4-ol] had an IC50 greater than 1000 nM.
Take `Clc1ccc(-c2cc(N3CCC(N4CCCC4)CC3)nc(-c3cccnc3)n2)cc1` [Example 152, 4-(4-chlorophenyl)-2-(pyridin-3-yl)-6-(4-(pyrrolidin-1-yl)piperidin-1-yl)pyrimidine]: the IC50 fell in the range of 100 to 1000 nM.
On to `OC1(c2ccc(Cl)cc2)CCN(c2cc(-c3ccc(Cl)cc3)nc(-c3cccnc3)n2)CC1` [Example 153, 4-(4-chlorophenyl)-1-(6-(4-chlorophenyl)-2-(pyridin-3-yl)pyrimidin-4-yl)piperidin-4-ol], for which the IC50 is greater than 1000 nM.
